In patent publication US7144893B2, “4-aryl quinols and analogs thereof as therapeutic agents” (Cancer Research Technology Limited, priority 2001, dated 2006):
≈ marks a conversion by molar mass, not a printed value.

Tests used:
[1] = system: ZR^75 clones expressing different levels of epidermal growth factor receptor (EGFR); assay: Activity against ZR75 clones with different EGFR levels; type: cell-based
[2] = system: MCF-7 (wt p53) and MDS 468 (mut p53) (breast cancer); assay: Potency in MCF-7 (wt p53) and MDS 468 (mut p53); type: cell-based
[3] = system: colon sub-panel; assay: cells; type: cell-based; conditions: Homo sapiens, SW-620, read-out: mean LC50 in colon sub-panel
Description: Compounds were tested for in vitro activity (48 h drug exposure) across 60 human cancer cell lines through the National Cancer Institute (NCI) Developmental Therapies Screening Program (Boyd et al., 1995).

[4] = system: RXF 944L; assay: In vitro propidium iodide cytotoxicity assay; type: cell-based, human; conditions: mean ± S.D.
Description: (§1) This assay was performed essentially according to the method described by Dengler et al., 1995. Human tumor cells (see Table 2) were plated in 96 well flat-bottomed microtiter plates (50 μL cell suspension, 1×10^5 or 5×10^4 cells/mL) and additional 50 μL of culture medium were added. After a 24 hr recovery, 50 μL of culture medium containing 50 μg/mL gentamycin was added into the 6 control wells or medium containing the test drug ([…]) was added to the wells. Each drug concentration was plated in triplicate. Following 3-6 days of incubation, depending on cell doubling time, a modified propidium iodide (PI) assay was performed. Culture medium was replaced by fresh medium and 50 μL of an aqueous propidium iodide solution (25 μg/mL) were added to each well. […] The fluorescence signal correlates with the numbers of dead cells. Fluorescence (FU1) was measured using a Millipore Cytofluor 2350 microplate reader (excitation 530 nm, emission 620 nm). Microplates were then kept at -18° C. for 24 hr, yielding a total cell kill. After thawing of the plates and a second fluorescence measurement (FU2), the amount of viable cells was calculated by subtraction of […]). Growth inhibition was expressed as treated/control ×100 (% T/C) (that is, growth inhibition at a given concentration is represented as a percentage of treated cell growth over control cell growth). Inhibiting concentrations (IC) were determined by plotting compound concentration versus cell viability. Mean IC50, IC70, and IC90 values were calculated for each individual cell line.

[5] = system: RXF 393NL; assay: In vitro propidium iodide cytotoxicity assay; type: cell-based, human; conditions: mean ± S.D.
Description: as §1

[6] = system: RXF 631L; assay: In vitro propidium iodide cytotoxicity assay; type: cell-based, human; conditions: mean ± S.D.
Description: as §1

[7] = system: cellular glutathione; assay: Cellular glutathione; type: cell-based

SMILES: O=C1C=CC(O)(c2nc3ccccc3s2)C=C1 [Q05, 4-(Benzothiazol-2-yl)-4-hydroxy-2,5-cyclohexadien-1-one]
- relative activity against ZR75 clones [1]: equi-active
- relative potency MCF-7 (wt p53) and MDS 468 (mut p53) [2]: equi-potent
- LC50 [3]: 1.76 µM
- IC50 ([4]; Homo sapiens): 0.265 ± 0.06 µg/mL (≈ 1.09 µM)
- IC90 ([4]; Homo sapiens): 0.87 ± 0.09 µg/mL (≈ 3.58 µM)
- Mean IC70 [4]: 0.48 ± 0.08 µg/mL
- IC50 ([5]; Homo sapiens): 0.34 ± 0.03 µg/mL (≈ 1.4 µM)
- IC90 ([5]; Homo sapiens): 8.63 ± 5.4 µg/mL (≈ 35.5 µM)
- Mean IC70 [5]: 0.67 ± 0.09 µg/mL
- IC50 ([6]; Homo sapiens): 0.37 µg/mL (≈ 1.52 µM)
- IC90 ([6]; Homo sapiens): 0.84 µg/mL (≈ 3.45 µM)
- Mean IC70 [6]: 0.56 N.E. μg/mL
- effect on cellular glutathione [7]: depletes cellular glutathione
